Experimental data: patent US10322112B2, “Compound combinations for attenuation of bacterial virulence” (priority 2016, dated 2019)
“Also recorded” adds a separate entry of the source.

Columns and labels:
[1] = target: QscR (Pseudomonas aeruginosa, UniProt G3XD77); conditions: compounds at 100 mm; E. coli reporter strain JLD271/pJN105Q/pSC11-Q; 100 mm OdDHL = 100%; error ±10%
From the text: Construction of pSC11-Q: A 348 bp fragment spanning the upstream region of PA1897 (¢304 to +43 relative to the PA1897 translationalstart codon) was amplified from plasmid pJL101*by using primers 5′-GAATAT GGATCC TCTCTC CGCAGA TACCTG-3′ (BamHI site underlined) SEQ ID NO:5 and 5′-GCTATT GAATTC TGAAGA TGAATA GCGCCAC-3′ (EcoRI site underlined) SEQ ID NO:6. The PCR-generated fragment was digested with EcoRI and BamHI and subsequently ligated into EcoRI/BamHI-digested pPROBE-KT to generate pPROBE-KQ2. […] CGCC-3′ (BamHI site underlined) SEQ ID NO:8. The PCR-generated fragment was digested with SalI and BamHI and subsequently ligated into SalI/BamHI-digested pSC11 to generate pSC11-Q.
E. coli reporter gene assays: Primary assays for RhlR, LasR, and QscR activity in E. coli JLD271 reporter (beta-galactosidase) strains were performed as reported by Welsh et al. 2015, with the following modifications:
For all primary and dose-response antagonism assays, the concentration of native ligand utilized was approximately equal to its EC50 value in each bacterial reporter strain. For RhlR, LasR, and QscR primary antagonism assays, synthetic ligand (100 mm) was screened against BHL (10 mm), OdDHL (2 nm), and OdDHL (15 nm), respectively. For RhlR, LasR, and QscR primary agonism assays, synthetic compound (100 mm) was screened alongside and compared to the natural ligand (900 mm BHL or 100 mm OdDHL) for the receptor. As part of the beta-galactosidase assay protocol, plates to which CPRG substrate had been added were incubated at either 25° C. (LasR assay) or 30° C. (RhlR and QscR assays) until positive control wells developed a deep red color (10 min for LasR, 30 min for RhlR, and 60 min for QscR). Dose-response reporter gene assays were performed according to these protocols by using varying concentrations of compound.

[2] = tested on: P. aeruginosa (PAO1); assay: P. aeruginosa growth curves; type: cell-based, Pseudomonas aeruginosa
Experimental: FIGS. 2A-2D are wild-type P. aeruginosa growth curves in the presence of test compounds in various media. Related to FIGS. 3, 6A and 6B, 7A and 7B, and 12. (FIG. 2A) Growth curves in complete MOPS/Glutamate. (FIG. 2B) Growth curves in complete MOPS/Glucose. […] (FIG. 2D) Growth curves in SCFM2. P. aeruginosa (PAO1) was grown in a manner identical to the pyocyanin assay (see Experimental Procedures). At each time point, growth was measured by either reading OD600 (for MOPS media) or by serially diluting culture aliquots, plating on LB agar, and counting CFUs after overnight incubation at 37° C. (for SCFM2). Compound concentrations are 100 microM for compounds 1, 2, and 3 and 25 microM for compound 4 in all experiments unless noted otherwise. Error bars represent the standard error of at least two biological replicates (n≥2). BHL=N-butyryl L-homoserine lactone (Cayman Chemicals).
B. Bacterial Strains and Growth Conditions. Protocols for construction of genetic knockout strains are described below in Example 2. All reagents for bacterial culture were purchased from Sigma-Aldrich unless indicated otherwise. Bacteria were routinely cultured in Luria-Bertani broth (LB) at 37° C. with shaking at 200 rpm. Freezer stocks of bacterial strains were maintained at −80° C. in 1:1 LB:glycerol. Bacterial growth was routinely assessed by measuring the culture cell density according to absorbance at 600 nm (OD600341). Cell growth in simulated cystic fibrosis sputum medium (SCFM2) was determined by serially diluting assay cultures, plating on LB agar, and counting the number of colony forming units (CFU) appearing after overnight incubation at 37° C.

Chain of QscR (G3XD77 entry or part of it): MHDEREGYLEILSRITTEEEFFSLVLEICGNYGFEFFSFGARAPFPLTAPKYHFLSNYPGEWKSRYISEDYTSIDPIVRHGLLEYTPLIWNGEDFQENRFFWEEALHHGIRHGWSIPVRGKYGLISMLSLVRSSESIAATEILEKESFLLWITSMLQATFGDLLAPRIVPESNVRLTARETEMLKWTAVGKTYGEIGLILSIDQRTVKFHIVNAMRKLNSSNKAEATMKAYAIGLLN

Compound: O=C(N[C@H]1CCOC1=O)C1CCCC1 [compound 3]
- Activation [%] QscR [1]: 4%
- growth with other carbon sources ([2]; complete MOPS Glucose or LB broth, 100 μM compound 3): did not observe growth effects with other carbon sources
- growth in MOPS Glutamate ([2]; complete MOPS Glutamate, 100 μM): growth delay; also recorded: delayed P. aeruginosa growth in MOPS Glutamate
